Test results reported in patent US7989450B2, “Functionalized diarylisoxazoles inhibitors of ciclooxygenase” (Universita' Degli Studi Di Bari, priority 2008, dated 2011).

How the values were obtained:
platelet COX-1 = biological target: T1, platelet COX-1 (Homo sapiens, UniProt P23219); experiment: Biosynthesis of TXB2 in human whole blood left to coagulate, index of platelet COX-1 activity; type: cell-based; conditions: human whole blood method, coagulation 1 hour at 37° C., TXB2 by RIA
T1 construct: 1 ml aliquots of whole blood were immediately transferred into glass test tubes and left to coagulate at 37° C; endogenous in cells; host or cells: platelets in whole blood of healthy human volunteers
Procedure: (§1) Fourteen healthy volunteers (25-34 years) were enrolled to take part in the study and were studied on various occasions. Peripheral venous blood samples were taken from donors who had not taken FANS in the 2 weeks prior to the study.
1 ml aliquots of whole blood were immediately transferred into glass test tubes and left to coagulate at 37° C. for 60 minutes.

[1] = biological target: T2, monocyte COX-2 induced by LPS (Homo sapiens, UniProt P35354); experiment: Biosynthesis of PGE2 in LPS-stimulated human whole blood, index of monocyte COX-2 activity; type: cell-based; conditions: human whole blood method, 24 hours at 37° C.; for IC50: LPS 10 microg/ml, PGE2 by RIA
T2 construct: incubated with heparinised whole blood in the presence of LPS (10 microg/ml) for 24 hours at 37° C; endogenous in cells; host or cells: LPS-stimulated monocytes in heparinised whole blood of healthy human volunteers
T2 sequence (P35354 18-604): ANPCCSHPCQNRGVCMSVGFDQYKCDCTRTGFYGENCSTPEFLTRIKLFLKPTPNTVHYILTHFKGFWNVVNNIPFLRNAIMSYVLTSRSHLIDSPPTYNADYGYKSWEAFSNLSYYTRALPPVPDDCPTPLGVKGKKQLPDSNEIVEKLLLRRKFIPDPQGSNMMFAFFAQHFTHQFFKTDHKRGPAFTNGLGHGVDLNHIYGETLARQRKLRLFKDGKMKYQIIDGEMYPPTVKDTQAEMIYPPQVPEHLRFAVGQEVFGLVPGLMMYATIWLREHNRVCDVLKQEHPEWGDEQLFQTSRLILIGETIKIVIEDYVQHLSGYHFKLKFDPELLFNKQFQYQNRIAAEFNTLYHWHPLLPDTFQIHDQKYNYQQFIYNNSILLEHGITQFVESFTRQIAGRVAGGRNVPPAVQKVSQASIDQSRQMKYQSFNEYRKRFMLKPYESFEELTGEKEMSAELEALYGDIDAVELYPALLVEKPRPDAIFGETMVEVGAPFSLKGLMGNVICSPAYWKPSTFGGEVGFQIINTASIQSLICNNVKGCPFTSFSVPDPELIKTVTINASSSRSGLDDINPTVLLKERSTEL
Procedure: as §1
Biosynthesis of PGE2 in the Whole Blood as an Index of Monocyte COX-2 Activity Induced by LPS.
Aliquots of 1 ml of whole blood taken from the cubital vein with a syringe containing heparin (20 IU/ml blood) were incubated with lipopolysaccharide (LPS, from Escherichia coli 026:B6; Sigma Chemical Company, St. Louis, Mo.) (10 μg/ml) for 24 hours at 37° C. The plasma was separated by centrifugation and kept at −70° C. The PGE2 was measured with a specific radioimmunological assay (RIA) as an index of monocyte COX-2 activity induced by LPS.

[2] = secondary prevention, various groups of patients; cited from earlier work

T1 sequence (P23219 24-599): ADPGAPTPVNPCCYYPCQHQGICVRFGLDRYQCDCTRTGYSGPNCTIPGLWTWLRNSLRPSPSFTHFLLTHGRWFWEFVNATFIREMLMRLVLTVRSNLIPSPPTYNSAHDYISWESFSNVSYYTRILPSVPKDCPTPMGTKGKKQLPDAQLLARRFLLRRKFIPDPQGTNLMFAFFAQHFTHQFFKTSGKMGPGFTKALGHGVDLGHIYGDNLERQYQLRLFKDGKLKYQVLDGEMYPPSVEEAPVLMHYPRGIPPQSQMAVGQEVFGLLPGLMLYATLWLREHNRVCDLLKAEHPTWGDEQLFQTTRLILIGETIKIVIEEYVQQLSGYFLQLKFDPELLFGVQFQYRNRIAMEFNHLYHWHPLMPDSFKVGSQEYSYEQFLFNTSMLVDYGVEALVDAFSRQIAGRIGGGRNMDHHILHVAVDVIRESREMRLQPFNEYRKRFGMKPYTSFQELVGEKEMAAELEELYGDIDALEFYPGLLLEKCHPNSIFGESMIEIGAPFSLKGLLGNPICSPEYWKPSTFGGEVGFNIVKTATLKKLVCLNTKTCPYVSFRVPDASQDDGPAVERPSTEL

| Structure (SMILES) | melting point | IC50 (platelet COX-1) [µM] | further results |
| --- | --- | --- | --- |
| CC1(O)ON=C(c2ccc(Cl)o2)C1c1ccc(F)cc1 (stereo not drawn) [Example 2, 3-(5-Chlorofuran-2-yl)-4-(4-fluorophenyl)-5-hydroxy-5-methyl-2-isoxazoline] | 101 to 102 °C | – | – |
| FC(F)(F)c1onc(-c2ccc(Cl)o2)c1-c1ccccc1 [Example 5, 3-(5-Chlorofuran-2-yl)-4-phenyl-5-(trifluoromethyl)isoxazole] | 55 to 57 °C | 0.81 | IC50 [1]: > 100 µM |
| Cc1onc(-c2ccc(Cl)o2)c1-c1ccc(F)cc1 [Example 6, 3-(5-Chlorofuran-2-yl)-4-(4-fluorophenyl)-5-methylisoxazole] | 103.7 to 105.2 °C | 1.9 | IC50 [1]: > 100 µM |
| Cc1onc(-c2ccc(Cl)o2)c1-c1ccccc1F [Example 7, 3-(5-Chlorofuran-2-yl)-4-(2-fluorophenyl)-5-methylisoxazole] | – | 1.9 | IC50 [1]: > 100 µM |
| CC(=O)OCc1onc(-c2ccc(Cl)o2)c1-c1ccccc1 [Example 18, 5-Acetoxymethyl-3-(5-chlorofuran-2-yl)-4-phenylisoxazole] | – | 5.2 | IC50 [1]: > 100 µM |
| CC(=O)Oc1ccccc1C(=O)O [aspirin, acetylsalicylic acid] | – | – | prevention of non fatal vascular events [2]: 25-30%; prevention of vascular death [2]: 15-20% |

The next lines start with results.

| melting point | IC50 (platelet COX-1) [µM] | Structure (SMILES) | further results |
| --- | --- | --- | --- |
| 93 to 96 °C | – | Cc1onc(-c2ccco2)c1-c1ccccc1 [Example 12, 3-(Furan-2-yl)-4-phenyl-5-methylisoxazole] | – |
| 93 to 96 °C | – | Cc1onc(-c2ccc(Br)o2)c1-c1ccccc1 [Example 14, 3-(5-Bromofuran-2-yl)-4-phenyl-5-methylisoxazole] | – |
| 168 to 170 °C | – | O=C(O)c1onc(-c2ccc(Cl)o2)c1-c1ccccc1 [Example 15, [3-(5chlorofuran-2-yl)-4-phenylisoxazol-5-yl]carboxylic acid] | – |
| 130 to 131 °C | – | COC(=O)c1onc(-c2ccc(Cl)o2)c1-c1ccccc1 [Example 16, Methyl [3-(5-chlorofuran-2-yl)-4-phenylisoxazol-5-yl]carboxylate] | – |
| 102 to 103 °C | 4.2 | OCc1onc(-c2ccc(Cl)o2)c1-c1ccccc1 [Example 17, 3-(5-Chlorofuran-2-yl)-4-phenyl-5-hydroxymethylisoxazole] | inhibition at 100 µM ([1]; 100 μM, LPS, read-out: COX-2 inhibition (I) at 100 μM): 44% |
| 82 to 83.7 °C | – | O=C(OCCCN1CCOCC1)c1onc(-c2ccc(Cl)o2)c1-c1ccccc1 [Example 19, 3-(Morpholin-1-yl)propyl[3-(5-chlorofuran-2-yl)-4-phenylisoxazol-5-yl]carboxilate] | – |
| 100 to 101 °C | – | O=C(OCCCBr)c1onc(-c2ccc(Cl)o2)c1-c1ccccc1 [Example 20, 3-Bromopropyl[3-(5-chlorofuran-2-yl)-4-phenylisoxazol-5-yl]carboxylate] | – |
| 79 to 79.8 °C | – | O=C(OCCCO[N+](=O)[O-])c1onc(-c2ccc(Cl)o2)c1-c1ccccc1 [Example 21, 3-(Nitroxy)propyl[3-(5-chlorofuran-2-yl)-4-phenylisoxazol-5-yl]carboxylate] | – |
| 113 to 117 °C (dec.) | – | COC(=O)c1c(-c2ccc(Cl)o2)noc1-c1ccccc1 [Example 22, Methyl3[-(5-chlorofuran-2-yl)-5-phenylisoxazol-4-yl]carboxylate] | – |
